# Results from paper PMC3407089, “Influence of GABAA Receptor α Subunit Isoforms on the Benzodiazepine Binding Site” (PLoS ONE, 2012).
# Assays:
# [1] = test system: α6S203Cβ2γ2 GABAA receptor; assay: Covalent reaction at the functional level (two-electrode voltage clamp, Xenopus oocytes); format: cell-based; conditions: 1 µM Abecarnil at GABA EC2–5, naive oocytes
# Description: (§1) Capped cRNAs were synthesized (Ambion, Austin, TX, USA) from the linearized plasmids with a cytomegalovirus promotor (pCMVvectors) containing the different subunits, respectively. A poly-A tail of about 400 residues was added to each transcript using yeast poly- A polymerase (United States Biologicals, Cleveland, OH, USA). The concentration of the cRNA was quantified on a formaldehyde gel using Radiant Red stain (Bio-Rad) for visualization of the RNA. Known concentrations of RNA ladder (Invitrogen) were loaded as standard on the same gel. cRNAs were precipitated in ethanol/isoamylalcohol 19∶ 1, the dried pellet dissolved in water and stored at −80°C. cRNA mixtures were prepared from these stock solutions and stored at −80°C. Xenopus laevis oocytes were prepared, injected and defolliculated as described previously, [39]. They were injected with 50 nL of the cRNA solution containing wild type or mutated α1 or α2, α3, α5, α6 and wild type β2 and γ2 subunits at a concentration of 10 nM : 10 nM : 50 nM [40] and then incubated in modified Barth’s solution at +18°C for at least 24 h before the measurements.
# (§2) Currents were measured using a modified two-electrode voltage clamp amplifier Oocyte clamp OC-725 (Warner Instruments) in combination with a XY-recorder (90% response time 0.1s) or digitized at 100 Hz using a PowerLab 2/20 (AD Instruments) using the computer programs Chart (ADInstruments GmbH, Spechbach, Germany). Tests with a model oocyte were performed to ensure linearity in the larger current range. The response was linear up to 15 µA.
# (§3) Electrophysiological experiments were performed by using the two-electrode voltage clamp method at a holding potential of −80 mV. The perfusion medium contained 90 mM NaCl, 1 mM KCl, 1 mM MgCl2, 1 mM CaCl2, and 5 mM Na-HEPES (pH 7.4) and was applied by gravity flow 6 ml/min. The perfusion medium was applied through a glass capillary with an inner diameter of 1.35 mm, the mouth of which was placed about 0.4 mm from the surface of the oocyte. Allosteric modulation via the benzodiazepine site was measured at a GABA concentration eliciting 2–5% of the maximal GABA current amplitude. GABA was applied for 20 s alone or in combination with allosteric compound. 6 ml of the covalent reacting compound was applied to the oocyte and incubated for 3 min while stopping the flow of the perfusion medium. Modulation of GABA currents was expressed as (I(modulator + GABA)/IGABA –1) * 100%. The perfusion system was cleaned between drug applications by washing with DMSO to avoid contamination.
# [2] = test system: α6N204Cβ2γ2 GABAA receptor; assay: as above; format: cell-based; conditions: 1 µM Abecarnil at GABA EC2–5, naive oocytes
# Description: as §1, §2, §3
# α2G207Cβ2γ2 receptors = test system: T1, α2G207Cβ2γ2 receptors; assay: Radioactive ligand binding; conditions: not shown
# T1 construct: expressed in transfected cells; host or cells: HEK293 cells (ATCC CRL 1573), membranes
# Description: (§4) cDNAs coding for the αx (x = 1, 2, 3, 6), β2, and γ2S subunits DNA (20 µg : 20 µg : 20 µg) per 9 cm diameter dish were transfected in human embryonic kidney (HEK) 293 cells (American Type of Culture Collection, MD, USA, CRL 1573) using the calcium phosphate precipitation technique. For α5 containing receptors β2 was replaced by β1. […] Culturing of cells and membrane preparation were done as described before.
# (§5) The properties of the recombinant mutant receptors were only estimated. For this affinity estimate, membranes were re-suspended in phosphate buffer using a Teflon homogenizer. They were incubated in a total volume of 360 µl for 1 h on ice in the presence of [^3H]Ro15–1788 (78.6 Ci/mmol; PerkinElmer Life Sciences). The final protein concentration was 0.1–1 mg of protein/ml. Total binding was measured at 0.5 and 5 nM [^3H]Ro15–1788. Nonspecific binding was determined under the same condition but in the presence of 100 µM unlabeled Ro15–1788 and amounted to less than 10% of total binding, except for α2S206Cβ2γ2 and α5T208Cβ2γ2 where it amounted to 10–17%. Expression levels of α6β2γ2 receptors were estimated with [^3H]Ro15–4513. Membranes were collected by rapid vacuum filtration on GF/C filters. After three washing steps (3 sec each) with 5 ml of phosphate buffer, the filter-retained radioactivity was determined by liquid scintillation counting.
# α1G207Cβ2γ2 receptors = test system: T2, α1G207Cβ2γ2 receptors; assay: Radioactive ligand binding; conditions: not shown
# T2 construct: expressed in transfected cells; host or cells: HEK293 cells (ATCC CRL 1573), membranes
# Description: as §4, §5
# α6T205Cβ2γ2 receptor = biological target: T3, α6T205Cβ2γ2 receptor (Rattus norvegicus, UniProt P18508+P30191, T224C); assay: Affinity estimate with [^3H]Ro15–4513; format: binding; conditions: read-out: Estimated affinity
# T3 construct: expressed in transfected cells; host or cells: HEK293 cells (ATCC CRL 1573), membranes
# Description: as §4, §5
# [3] = test system: T4, α5T210Cβ2γ2 GABAA receptor; assay: Covalent reaction at the functional level (two-electrode voltage clamp, Xenopus oocytes); format: cell-based; conditions: 1 µM diazepam at GABA EC2–5, naive oocytes
# T4 construct: expressed in transfected cells; host or cells: Xenopus laevis oocytes (cRNA injection)
# Description: as §1, §2, §3
# [4] = test system: α5S209Cβ2γ2 GABAA receptor; assay: as above; format: cell-based; conditions: 1 µM diazepam at GABA EC2–5, naive oocytes
# Description: as §1, §2, §3
# [5] = test system: α1S204Cβ2γ2 GABAA receptor; assay: as above; format: cell-based; conditions: 1 µM diazepam at GABA EC2–5, naive oocytes
# Description: as §1, §2, §3
# [6] = test system: α3T231Cβ2γ2 GABAA receptor; assay: as above; format: cell-based; conditions: 1 µM diazepam at GABA EC2–5, naive oocytes
# Description: as §1, §2, §3
# [7] = test system: α3S230Cβ2γ2 GABAA receptor; assay: as above; format: cell-based; conditions: 1 µM diazepam at GABA EC2–5, naive oocytes
# Description: as §1, §2, §3
# [8] = test system: α5T208Cβ2γ2 GABAA receptor; assay: as above; format: cell-based; conditions: 1 µM diazepam at GABA EC2–5, naive oocytes
# Description: as §1, §2, §3
# α6 containing receptors = test system: T5, α6 containing receptors; assay: Functional modulation of GABA currents (Xenopus oocytes); format: cell-based; conditions: functional level
# T5 construct: expressed in transfected cells; host or cells: Xenopus laevis oocytes (cRNA injection)
# Description: as §1, with “Xenopus laevis oocytes were prepared, injected and defolliculated as described previously, [39]. They were injected with 50 nL of the cRNA solution containing wild type or mutated α1 or α2, α3, α5, α6 and wild type β2 and γ2 subunits at a concentration of 10 nM : 10 nM : 50 nM [40] and then incubated in modified Barth’s solution at +18°C for at least 24 h before the measurements.” left out
# as §2, with “Tests with a model oocyte were performed to ensure linearity in the larger current range. The response was linear up to 15 µA.” left out
# Electrophysiological experiments were performed by using the two-electrode voltage clamp method at a holding potential of −80 mV. […] Allosteric modulation via the benzodiazepine site was measured at a GABA concentration eliciting 2–5% of the maximal GABA current amplitude. […] Modulation of GABA currents was expressed as (I(modulator + GABA)/IGABA –1) * 100%. […]
# T3 sequence (P30191 20-453 T224C): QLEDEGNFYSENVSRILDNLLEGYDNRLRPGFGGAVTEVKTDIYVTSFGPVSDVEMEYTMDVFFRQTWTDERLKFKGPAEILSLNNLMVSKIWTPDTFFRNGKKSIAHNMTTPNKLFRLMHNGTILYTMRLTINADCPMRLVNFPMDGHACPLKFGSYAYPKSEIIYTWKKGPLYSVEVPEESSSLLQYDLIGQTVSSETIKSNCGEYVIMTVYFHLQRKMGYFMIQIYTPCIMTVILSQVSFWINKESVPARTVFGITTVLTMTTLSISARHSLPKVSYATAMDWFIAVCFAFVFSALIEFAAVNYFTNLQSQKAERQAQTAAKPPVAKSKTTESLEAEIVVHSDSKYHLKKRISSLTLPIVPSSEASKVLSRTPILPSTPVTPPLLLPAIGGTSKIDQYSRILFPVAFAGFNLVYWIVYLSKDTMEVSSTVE
# T3 sequence (P63138 25-474 partner limits assumed): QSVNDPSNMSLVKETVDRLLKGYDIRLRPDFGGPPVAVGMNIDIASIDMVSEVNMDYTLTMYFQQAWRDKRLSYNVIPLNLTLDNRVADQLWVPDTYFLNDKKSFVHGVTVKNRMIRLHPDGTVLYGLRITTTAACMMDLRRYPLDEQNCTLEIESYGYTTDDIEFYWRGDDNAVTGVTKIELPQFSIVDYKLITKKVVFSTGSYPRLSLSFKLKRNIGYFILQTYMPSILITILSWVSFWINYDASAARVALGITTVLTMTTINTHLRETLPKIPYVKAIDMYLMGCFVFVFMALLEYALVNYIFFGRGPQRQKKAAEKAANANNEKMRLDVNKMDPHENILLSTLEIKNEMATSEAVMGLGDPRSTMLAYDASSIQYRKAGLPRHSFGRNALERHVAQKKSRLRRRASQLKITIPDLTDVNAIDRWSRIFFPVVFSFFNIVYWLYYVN
# T3 sequence (P18508 39-466): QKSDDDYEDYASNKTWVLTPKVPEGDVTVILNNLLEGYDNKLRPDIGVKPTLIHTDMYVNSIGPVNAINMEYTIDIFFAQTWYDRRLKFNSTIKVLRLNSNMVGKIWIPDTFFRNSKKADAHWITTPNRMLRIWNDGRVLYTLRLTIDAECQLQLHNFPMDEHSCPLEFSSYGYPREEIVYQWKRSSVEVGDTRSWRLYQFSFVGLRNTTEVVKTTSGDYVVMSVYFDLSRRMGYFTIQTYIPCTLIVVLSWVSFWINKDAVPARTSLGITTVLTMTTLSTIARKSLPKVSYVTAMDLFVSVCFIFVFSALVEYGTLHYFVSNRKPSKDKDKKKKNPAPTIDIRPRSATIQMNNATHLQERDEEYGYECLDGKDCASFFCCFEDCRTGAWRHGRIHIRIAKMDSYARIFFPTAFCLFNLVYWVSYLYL
smiles,measurement,setting,value
"COCc1c(C(=O)OC(C)C)ncc2[nH]c3ccc(OCc4ccccc4)cc3c12 [Abecarnil, reference compound]","% allosteric modulation, DZ (*1µM Abecarnil was used)",[1],50±20 %
same,"% allosteric modulation, DZ (*1µM Abecarnil was used)",[2],70±40 %
CCOC(=O)c1ncn2c1CN(C)C(=O)c1cc(F)ccc1-2 [[^3H]Ro 15–1788],High affinity binding (in words),α2G207Cβ2γ2 receptors,did not confer to the expressed receptors high affinity
same,High affinity binding (in words),α1G207Cβ2γ2 receptors,did not confer to the expressed receptors high affinity
CCOC(=O)c1ncn2c1CN(C)C(=O)c1cc(N=[N+]=[N-])ccc1-2 [[^3H]Ro15–4513],Kd,α6T205Cβ2γ2 receptor,4 nM
"CN1C(=O)CN=C(c2ccccc2)c2cc(Cl)ccc21 [DZ, diazepam, reference compound]","% allosteric modulation, DZ",[3],82±14%
same,"% allosteric modulation, DZ",[4],103±3%
same,"% allosteric modulation, DZ",[5],126±9%
same,"% allosteric modulation, DZ",[6],88±45%
same,"% allosteric modulation, DZ",[7],149±44%
same,"% allosteric modulation, DZ",[8],129±38%
same,Response to diazepam (in words),α6 containing receptors,did not respond
"CN1C(=O)CN=C(c2ccccc2F)c2cc([N+](=O)[O-])ccc21 [[^3H]flunitrazepam, flunitrazepam]",High affinity binding (in words),α2G207Cβ2γ2 receptors,did not confer to the expressed receptors high affinity
same,High affinity binding (in words),α1G207Cβ2γ2 receptors,did not confer to the expressed receptors high affinity
